This note sets out measurements from patent US20210029994A1, “HERBICIDE COMPOSITIONS AND METHODS OF CONTROLLING GROWTH OF PLANTS” (priority 2019, published 2021).

Assay type in all cases: in vivo
The subject of experiment [1] is Chenopodium album L. (lamb's quarters), Group 2,5 Resistant. The experiment is described as follows: Post-emergent treatment of potted weeds with herbicide composition, 7 day growth (FIG. 4). Conditions: 1% Juglone; weeds about 0-2 weeks post emergent (about 2-5 cm); 7 days after treatment. As to the method: (§1) Referring now to the figures, pictures of various weeds are shown herein after being treated with an herbicide composition described herein. In all of the pictures provided herein, weeds that were about 0-2 weeks post emergent (e.g. about 2-5 cm in height) were treated with an herbicide composition having a 1% Juglone concentration. In most cases, plant damage was observed within two hours of treatment of the weeds with the herbicide composition.
FIG. 4 is a picture of three pots showing 7 day growth of Chenopodium album L. (lamb's quarters), Group 2,5 Resistant, when left untreated, treated with 1% Juglone, and treated with a control (i.e. solvent/surfactant, no active ingredient), respectively.

Experiment [2] has as its system Amaranthus hybridus L. (smooth pigweed), Group 2,5 Resistant. The experiment is described as follows: Post-emergent treatment of potted weeds with herbicide composition, 7 day growth (FIG. 7). Conditions: 1% Juglone; weeds about 0-2 weeks post emergent (about 2-5 cm); 7 days after treatment. The protocol:
as §1
FIG. 7 is a picture of three pots showing 7 day growth of Amaranthus hybridus L. (smooth pigweed), Group 2,5 Resistant, when left untreated, treated with 1% Juglone, and treated with a control (i.e. solvent/surfactant, no active ingredient), respectively.

In experiment [3] the test system is Amaranthus powelli (Powell's Amaranth), Group 2,5 resistant. The experiment is described as follows: Post-emergent treatment of potted weeds with herbicide composition, 7 day growth (FIG. 1). Conditions: 1% Juglone, weeds about 0-2 weeks post emergent (about 2-5 cm), 7 days after treatment. The protocol: as §1
Specifically, FIG. 1 is a picture of three pots showing 7 day growth of Amaranthus powelli (Powell's Amaranth), Group 2,5 resistant, when left untreated, treated with 1% Juglone, and treated with a control (i.e. solvent/surfactant, no active ingredient), respectively.

For experiment [4], the system named is Amaranthus rudis JD Sauer (Waterhemp), Group 2,4,5,14,9,27 Resistant. The experiment is described as follows: Post-emergent treatment of potted weeds with herbicide composition, 7 day growth (FIG. 2). Conditions: 1% Juglone; weeds about 0-2 weeks post emergent (about 2-5 cm); 7 days after treatment. As to the method:
as §1
FIG. 2 is a picture of three pots showing 7 day growth of Amaranthus rudis JD Sauer (Waterhemp), Group 2,4,5,14,9,27 Resistant, when left untreated, treated with 1% Juglone, and treated with a control (i.e. solvent/surfactant, no active ingredient), respectively.

Another experiment has as its system weeds. The experiment is described as follows: Onset of plant damage after treatment of weeds with herbicide composition. Conditions: 1% Juglone concentration; weeds about 0-2 weeks post emergent; in most cases. As to the method: as §1
Experiment [5] relates to Amaranthus rudis JD Sauer (Waterhemp), non-resistant. The experiment is described as follows: Post-emergent treatment of potted weeds with herbicide composition, 7 day growth (FIG. 3). Conditions: 1% Juglone; weeds about 0-2 weeks post emergent (about 2-5 cm); 7 days after treatment. As to the method:
as §1
FIG. 3 is a picture of three pots showing 7 day growth of Amaranthus rudis JD Sauer (Waterhemp), non-resistant, when left untreated, treated with 1% Juglone, and treated with a control (i.e. solvent/surfactant, no active ingredient), respectively.

Experiment [6] has as its system Amaranthus retroflexus L. (pigweed), Group 2,5 Resistant. The experiment is described as follows: Post-emergent treatment of potted weeds with herbicide composition, 7 day growth (FIG. 5). Conditions: 1% Juglone; weeds about 0-2 weeks post emergent (about 2-5 cm); 7 days after treatment. The protocol: as §1
FIG. 5 is a picture of two pots showing 7 day growth of Amaranthus retroflexus L. (pigweed), Group 2,5 Resistant, when left untreated and treated with 1% Juglone, respectively.

For experiment [7], the system named is Solanum ptycanthum (eastern black nightshade), Group 2 Resistant. The experiment is described as follows: Post-emergent treatment of potted weeds with herbicide composition, 7 day growth (FIG. 6). Conditions: 1% Juglone; weeds about 0-2 weeks post emergent (about 2-5 cm); 7 days after treatment. The protocol: as §1
FIG. 6 is a picture of two pots showing 7 day growth of Solanum ptycanthum (eastern black nightshade), Group 2 Resistant, when left untreated and treated with […] Juglone, respectively.

SMILES strings stand for the structures. “Also recorded” adds a separate entry of the source.

For `O=C1C=CC(=O)c2c(O)cccc21` [Juglone, 5-hydroxy-1,4-naphthalenedione], the “control of growth of Chenopodium album L. (lamb's quarters), Group 2,5 Resistant” value in experiment [1] is “effectively controlled the growth”. Besides, the “control of growth of Amaranthus hybridus L. (smooth pigweed), Group 2,5 Resistant” value in experiment [2] was “effectively controlled the growth”. For the same compound, the “control of growth of Amaranthus powelli” value in experiment [3] is reported as “effectively controlled the growth”. For the same compound, the “control of growth of Amaranthus rudis JD Sauer (Waterhemp), Group 2,4,5,14,9,27 Resistant” value in experiment [4] was “effectively controlled the growth; also recorded: did control the growth”. In addition, the “time to observed plant damage after treatment” value in the experiment on weeds was “two”. For the same compound, the “control of growth of Amaranthus rudis JD Sauer (Waterhemp), non-resistant” value in experiment [5] is recorded as “did not effectively control the growth”. In experiment [6], the “control of growth of Amaranthus retroflexus L. (pigweed), Group 2,5 Resistant” value was “effectively controlled the growth”. In addition, in experiment [7], the “control of growth of Solanum ptycanthum (eastern black nightshade), Group 2 Resistant” value is recorded as “effectively controlled the growth”.
